Assay results: the OligoGym collection
These antisense oligonucleotides have a phosphorothioate backbone; sugars and methylation of C are not fully specified.

Target: GNA11
Conditions: ASO
Further: test concentration or dose not given here.

Row | Sequence | remaining target (mRNA or protein) (fraction of control)
1 | AAGCCGCGCTTGTCCTCC | 0.44
2 | AAGTAGTCCACCAGGTGC | ≥ 1
3 | ACCAGATTGTACTCCTTC | ≥ 1
4 | ACGGCCGCGAACACGAAG | 0.94
5 | ACGTGCTCTTCCCGCTCT | 0.72
6 | ACTGACGTACTGATGCTC | 0.64
7 | AGATGATGTTCTCCAGGT | ≥ 1
8 | AGGGCTTTGCTCTCCTCC | 0.23
9 | ATCCGCTTGGACTCCTTC | 0.83
10 | ATCCGGAAGATGATGTTC | ≥ 1
11 | ATCCGGTTCTCGTTGTCC | 0.78
12 | ATCTGCTTGATGAACGTG | ≥ 1
13 | ATCTTGTCCTCCAGCAGG | 0.96
14 | ATGATGGATGTCACGTTC | ≥ 1
15 | ATGTTCTCCGTGTCGGTG | ≥ 1
16 | CACGCCATGATGGACTCC | ≥ 1
17 | CACGTGAAGTGTGAGTAG | ≥ 1
18 | CAGGAGCGCATTGGCCTT | ≥ 1

Row | Sequence | remaining target (mRNA or protein) (fraction of control)
19 | CAGGGTCTTGATGGCACT | ≥ 1
20 | CCAGGTCGAAAGGGTACT | ≥ 1
21 | CCATCCGGTTCTCGTTGT | 0.81
22 | CCCGCCGCAGCTGCTTCT | 0.42
23 | CGACTCCACCAGGACTTG | 0.6
24 | CGAGAAACATGATGGATG | ≥ 1
25 | CGCATCTGCTTGATGAAC | ≥ 1
26 | CGCCTGCGGTCGTAGCAT | ≥ 1
27 | CGGATCATGGCCTGCATG | 0.99
28 | CGTCCTGCTGGGTGGGCA | 0.6
29 | CGTCTCCATGGCCCGGAT | 0.51
30 | CGTTGATCCGCTTGGACT | ≥ 1
31 | CTCATCGCTCAGGCAACA | 0.39
32 | CTCCACGTCCACCTCCCG | 0.31
33 | CTCCGCTCCGACCGCTGG | 0.44
34 | CTCGATCTCGGCGTTGAT | ≥ 1
35 | CTGGATGCCCGGGTCCTC | ≥ 1

Target: TNFRSF1A
Conditions: ASO

Row | Sequence | remaining target (mRNA or protein) (fraction of control)
36 | AGTAGGTTCCTTTGTGGC | 0.54
37 | ATAGCGTCCCTCATCCTC | 0.66
38 | ATCCTCGCAAACCACCCA | 0.71
39 | ATCTGAGAAGACTGGGCG | ≥ 1
40 | ATTATTTTGAGGGTGGAT | ≥ 1
41 | CAAAGACCAAAGAAAATG | 0.71
42 | CAATGAAGAGGAGGGATA | 0.79
43 | CACCAGCGGCAGCAGCAG | 0.79
44 | CACCTGACCCATTTCCTT | 0.54
45 | CAGGAGCACCAGCGGCAG | 0.54
46 | CAGTCCGTATCCTGCCCC | 0.74
47 | CATTTCCTTTCGGCATTT | 0.87
48 | CATTTGGGCTCAGGGCAG | 0.91
49 | CCATTGAGGCAGAGGCTG | 0.52
50 | CCGCCTCCAGGTCGCCAG | ≥ 1
51 | CCGTTGGTAGCGATACAT | 0.7
52 | CGCAAACCACCCACTCAG | 0.49
53 | CGCAAAGTTGGGACAGTC | 0.7
54 | CTACAGGAGACACACTCG | 0.72
55 | CTCAGGGACGAACCAGGG | 0.97
56 | CTCAGGGCAGTGTGGCAG | 0.39
57 | CTGTCCTCCCACTTCTGA | 0.84

Row | Sequence | remaining target (mRNA or protein) (fraction of control)
58 | CTTACAGTTACTACAGGA | 0.79
59 | CTTAGTAGTAGTTCCTTC | 0.85
60 | GAAGCCTGGAGTGGGACT | 0.52
61 | GACCCATTTCCTTTCGGC | 0.74
62 | GCAGAGGGCACAGGAGTG | 0.76
63 | GCAGCAGCAGGTCAGGCA | 0.63
64 | GCAGCCCAGCAGGTCCAT | 0.68
65 | GCAGGTCAGGCACGGTGG | 0.84
66 | GCAGTGTGGCAGCGGCAG | 0.47
67 | GCCAAGTTTCTATTAGTG | 0.9
68 | GCCTGGACAGTCATTGTA | ≥ 1
69 | GCTCCTGCTTGCCCCTGC | 0.57
70 | GCTTGTCCAGGCAGAGGG | 0.82
71 | GCTTTTCTTACAGTTACT | 0.9
72 | GGACTGAAGCCCAGGGTG | 0.88
73 | GGTACTGGTTCTTCCTGC | 0.86
74 | GGTGACAGTTGAGGGTTG | 0.92
75 | GGTTGAGACTCGGGCATA | 0.6
76 | GGTTTTCTGAAGCGGTGA | 0.83
77 | GTCAGGCACGGTGGAGAG | ≥ 1
78 | GTCCAGGCAGAGGGCACA | 0.79
79 | GTCTGAGGTGGTTTTCTG | 0.66

Row | Sequence | remaining target (mRNA or protein) (fraction of control)
80 | GTGCCACCTCTCTGCGGG | ≥ 1
81 | GTGGAACTGGGCACGGGA | 0.96
82 | GTTAGCACCAAGTAGGCG | 0.89
83 | GTTCCTTTGTGGCACTTG | 0.88
84 | TAACATTCTCAATCTGGG | ≥ 1
85 | TATATTCCCACCAACAGC | 0.75
86 | TCCAGGCTTTTCTTACAG | ≥ 1
87 | TCCCCTCCTCTCTGCTTT | 0.95
88 | TCCGTGCTCGCCCCTGCC | 0.81
89 | TCCTCCAGGCAGCCCAGC | 0.59
90 | TCGATTTCCCACAAACAA | 0.99
91 | TCGTGGTCGCTCAGCCCT | 0.72
92 | TCTGAAGCGGTGAAGGAG | ≥ 1
93 | TCTTCTCCCTGTCCCCTA | 0.87
94 | TGAAGGTGGAACTGGGCA | 0.73
95 | TGAGGGTTGAGACTCGGG | 0.98
96 | TGCCTTAGGACAGTTCAG | 0.8
97 | TTAAACCAATGAAGAGGA | 0.72
98 | TTCTCTGGACTGAGGCTC | 0.81
99 | TTGGGCTCAGGGCAGTGT | ≥ 1
100 | TTGTTCCGTGCTCGCCCC | 0.59
101 | TTTTCACTCCAATAATGC | ≥ 1
